How the values were obtained:
[1] = tested on: implanted liver organoids; assay: Effect of CCl4 treatment on liver organoids implanted on mouse liver; format: in vivo, nude mice; conditions: 4 μl/g CCl4 in olive oil (1:1), bi-weekly subcutaneous injections
Protocol: FIG. 3. The effect of CCl4 treatment on implanted liver organoids. Liver organoids were inserted on top of mouse livers via a small hole carved with a 8 mm biopsy punch and immobilized with fibrin glue. Some of the mice were treated with 4 μl/g CCl4, via bi-weekly subcutaneous injections. Liver organoids were harvested after 1 and 3 weeks and immune-stained for human hepatocytes (Hep-1) and proliferating cells (PCNA). Implant margins are drawn.
Yet, the in vitro culture conditions lack multiple factors present in vivo including components of the blood and immune cells, to mention a few. Accordingly, we implanted organoids on top the liver of nude mice by creating a small hole with a biopsy punch and immobilized them with fibrin glue. […] In parallel, we treated some on the implanted mice with […] of CCl4 in olive oil (1:1), via bi-weekly subcutaneous injections. […] Neovascularization was also observed within the organoids, probably due to CCl4-induced injury of the host liver.

[2] = tested on: cells that do not carry activating EZH2 mutations; conditions: high doses; cited from earlier work
EZH2 [3] = target: T1, EZH2 (Homo sapiens, UniProt Q15910); assay: Western blot and densitometry of EZH2 activity marker H3K27me3 in fibroblasts treated with GSK-126; format: cell-based
T1 construct: endogenous in cells; host or cells: myofibroblasts transitioned from mesenchymal stem cells (called tumor-associated fibroblasts, TAF)
T1 sequence (Q15910 whole entry, species assumed): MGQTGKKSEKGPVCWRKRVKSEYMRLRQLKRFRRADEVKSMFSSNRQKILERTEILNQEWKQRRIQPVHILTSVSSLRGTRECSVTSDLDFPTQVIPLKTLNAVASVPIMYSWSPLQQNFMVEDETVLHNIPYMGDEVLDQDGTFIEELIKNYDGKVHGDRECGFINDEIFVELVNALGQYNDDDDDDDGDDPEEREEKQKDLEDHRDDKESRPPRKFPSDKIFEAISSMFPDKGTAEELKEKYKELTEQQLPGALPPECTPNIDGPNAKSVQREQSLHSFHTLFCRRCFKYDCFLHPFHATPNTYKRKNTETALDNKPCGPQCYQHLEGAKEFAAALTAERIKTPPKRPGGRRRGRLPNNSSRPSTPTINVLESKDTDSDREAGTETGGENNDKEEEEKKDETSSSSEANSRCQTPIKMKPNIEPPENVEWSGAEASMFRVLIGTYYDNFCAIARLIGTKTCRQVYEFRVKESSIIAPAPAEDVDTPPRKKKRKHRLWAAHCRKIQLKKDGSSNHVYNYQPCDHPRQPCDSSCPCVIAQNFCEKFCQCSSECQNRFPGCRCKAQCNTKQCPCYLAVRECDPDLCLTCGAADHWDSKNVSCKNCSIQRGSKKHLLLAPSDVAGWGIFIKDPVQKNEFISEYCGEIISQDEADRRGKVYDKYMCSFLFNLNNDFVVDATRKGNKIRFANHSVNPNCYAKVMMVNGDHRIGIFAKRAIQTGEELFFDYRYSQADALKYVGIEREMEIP
T1 sequence (Q15022 whole entry partner, species assumed): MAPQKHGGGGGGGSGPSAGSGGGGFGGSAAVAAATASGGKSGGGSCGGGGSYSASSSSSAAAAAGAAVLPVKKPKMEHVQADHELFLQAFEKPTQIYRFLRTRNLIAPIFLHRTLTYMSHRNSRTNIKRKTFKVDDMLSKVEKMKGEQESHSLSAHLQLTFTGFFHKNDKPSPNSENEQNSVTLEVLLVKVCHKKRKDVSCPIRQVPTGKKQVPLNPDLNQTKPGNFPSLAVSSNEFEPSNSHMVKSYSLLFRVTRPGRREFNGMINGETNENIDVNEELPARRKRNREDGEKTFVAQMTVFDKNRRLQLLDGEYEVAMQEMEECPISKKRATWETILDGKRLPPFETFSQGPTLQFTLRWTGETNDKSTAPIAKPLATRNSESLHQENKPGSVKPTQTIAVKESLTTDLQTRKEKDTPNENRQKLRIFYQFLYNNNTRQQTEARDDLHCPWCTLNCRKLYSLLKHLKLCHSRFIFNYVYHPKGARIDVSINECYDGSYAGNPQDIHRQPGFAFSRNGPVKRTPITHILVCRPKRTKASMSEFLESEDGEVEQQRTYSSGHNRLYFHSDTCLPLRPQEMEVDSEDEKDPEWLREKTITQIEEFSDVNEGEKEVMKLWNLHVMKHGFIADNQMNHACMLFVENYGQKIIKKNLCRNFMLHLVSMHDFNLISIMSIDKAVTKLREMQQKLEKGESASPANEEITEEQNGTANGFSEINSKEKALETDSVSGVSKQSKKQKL
T1 sequence (O75530 whole entry partner, species assumed): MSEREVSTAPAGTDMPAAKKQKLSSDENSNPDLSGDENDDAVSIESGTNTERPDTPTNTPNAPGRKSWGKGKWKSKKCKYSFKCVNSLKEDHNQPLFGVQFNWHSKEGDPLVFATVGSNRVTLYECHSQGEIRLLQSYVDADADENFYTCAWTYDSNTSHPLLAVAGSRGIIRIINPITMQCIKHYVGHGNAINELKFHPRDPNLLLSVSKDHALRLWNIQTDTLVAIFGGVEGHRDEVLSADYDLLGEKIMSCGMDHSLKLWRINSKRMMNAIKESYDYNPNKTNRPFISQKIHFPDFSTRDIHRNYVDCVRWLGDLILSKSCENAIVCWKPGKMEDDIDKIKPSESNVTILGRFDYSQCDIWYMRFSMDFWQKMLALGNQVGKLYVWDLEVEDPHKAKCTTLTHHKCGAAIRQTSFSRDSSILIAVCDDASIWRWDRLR
Protocol: (§1) FIG. 4A-FIG. 4F. Analysis of LX-2 cells. FIG. 4A: Western blot comparison of αSMA and PRC2 components/markers in Myofibroblasts and LX-2. FIG. 4B: Densitometry analysis of Myofibroblast vs. LX-2 western blot. FIG. 4C: Western blot analysis of αSMA and PRC2 components/markers in LX-2 cells treated with TGFβ for 24 or 48 hours. FIG. 4D: Densitometry analysis of TGFβ treated LX-2. FIG. 4E: Western blot analysis of EZH2 marker (H3K27me3) for EZH2 activity in myofibroblasts transitioned from Mesenchymal Stem Cells treated with GSK-126, a chemical inhibitor of EZH2. DMSO is a vehicle control.

EZH2 [4] = conditions: lymphoma and non-small cell lung cancer cell lines in vitro; cited from earlier work
[5] = tested on: cancer cell lines that have EZH2 activating mutations; conditions: cited from earlier work
LX-2 = assay: Western blot of EZH2 activity and PRC2 components in LX-2 cells incubated with TGFβ; format: cell-based; conditions: LX-2 cells treated with TGFβ for 24 or 48 hours; FIG. 4C, 4D
Protocol: as §1
In the fibrotic liver tissue, about 90% of myofibroblasts are derived from HSC (Liedtke, C., et al., Experimental liver fibrosis research: update on animal models, legal issues and translational aspects. Fibrogenesis Tissue Repair, 2013. 6(1): p. 19), and EZH2 may be an epigenetic regulator of HSC activation and transition into myofibroblast. It was shown that, like myofibroblasts (MF-10), the HSC cell line (LX-2) expresses EZH2 and the PRC components in vitro (FIG. 4A, FIG. 4B).

Molecule: ClC(Cl)(Cl)Cl [CCl4, carbon tetrachloride]
- Organoid histology after 1 week of CCl4 treatment ([1]; harvested after 1 week): lack of nucleated human hepatocytes within the organoids and early signs of fibrosis
- Organoid histology after 3 weeks of CCl4 treatment ([1]; harvested after 3 weeks): higher number of proliferating stromal and endothelial cells

Molecule: CC[C@H](C)n1cc(C)c2c(C(=O)NCc3c(C)cc(C)[nH]c3=O)cc(-c3ccc(N4CCNCC4)nc3)cc21 [GSK-126]
- Lethality [2]: non-lethal, even at high doses
- Densitometry of EZH2 marker (H3K27me3): activity of EZH2 (EZH2 [3]; myofibroblasts transitioned from Mesenchymal Stem Cells, treated with GSK-126, FIG. 4F): effective decrease in activity of EZH2
- H2K27me3 after incubation with GSK-126 (EZH2 [3]; tumor-associated fibroblasts (TAF), Western blot, FIG. 4E, 4F): complete loss of H2K27me3
- Prevention of H3K27me3 (EZH2 [4]): effective at preventing H3K27me3
- Cell death [5]: resulted in cell death

Molecule: TGFβ
- EZH2 activity and PRC machinery (Suz12, H3K27me3) (LX-2): induced EZH2 activity and PRC machinery

Reference: patent US20200377863A1, “MODEL SYSTEM OF LIVER FIBROSIS AND METHOD OF MAKING AND USING THE SAME” (Wake Forest University Health Sciences, priority 2017, published 2020)
